From the NIST ThermoML archive (doi:10.1021/je700020t)
± gives the expanded uncertainty stated by the source.

Conditions: 101.33 kPa, Liquid

Row | SMILES | mass density (253.15 K) [kg/m3] | mass density (263.15 K) [kg/m3] | mass density (273.15 K) [kg/m3] | mass density (283.15 K) [kg/m3] | mass density (293.15 K) [kg/m3] | mass density (298.15 K) [kg/m3] | mass density (323.15 K) [kg/m3] | mass density (343.15 K) [kg/m3] | mass density (363.15 K) [kg/m3] | mass density (383.15 K) [kg/m3] | mass density (324.15 K) [kg/m3] | mass density (358.15 K) [kg/m3]
1 | CCCCI [1-iodobutane] | 1670.9 ± 3.3 | 1655.2 ± 3.2 | 1639.1 ± 3.1 | 1623.7 ± 3 | 1607.6 ± 2.9 | 1599.8 ± 2.9 | 1558.7 ± 2.9 | 1525.7 ± 2.9 | 1492 ± 2.9 | 1457.2 ± 2.9 | – | –
2 | CCCI [1-iodopropane] | 1820.9 ± 1.8 | 1802.5 ± 1.7 | 1784.5 ± 1.7 | 1765.9 ± 1.6 | 1747.8 ± 1.5 | – | – | 1652.2 ± 1.6 | – | – | 1688.3 ± 1.6 | 1622.3 ± 1.7
